# Legend:
# [1] = system: Serratia marcescens IFO 12648; test: Antibacterial activity (MIC, growth in BHI medium); type: cell-based; set-up: key to Antibacterial activity (growth): -: grow; ±: slightly grow; +: not grow
# Procedure: (§1) To a test tube was charged 3.8 ml of Brain Heart Infusion (BHI) medium, and 100 μl of a sample solution containing oleanolic, ursolic or glycyrrhetic acid and 100 μl of pre-incubated culture of bacterium selected from those listed below were added thereto. The mixture was incubated at 37° C. and then allowed to stand over night. The extent of the growth of bacterium was observed after two or five days. The MIC value was determined for each sample and summarized in Table 2. |Serratia marcescens IFO 12648
# [2] = system: Bacillus megaterium QM B1551; test: Antibacterial activity (MIC, growth in BHI medium); type: cell-based; set-up: key to Antibacterial activity (growth): -: grow; ±: slightly grow; +: not grow
# Procedure: as §1, with “|Bacillus megaterium QM B1551” for “|Serratia marcescens IFO 12648”
smiles,measurement,setting,value
CC1(C)CC[C@]2(C(=O)O)CC[C@]3(C)C(=CC[C@@H]4[C@@]5(C)CC[C@H](O)C(C)(C)[C@@H]5CC[C@]43C)[C@@H]2C1 [Oleanolic acid],Antibacterial activity (growth),[1]; 10 μg/ml,-
same,Antibacterial activity (growth),[1]; 25 μg/ml,-
same,Antibacterial activity (growth),[1]; 50 μg/ml,-
same,Antibacterial activity (growth),[1]; 100 μg/ml,-
same,Antibacterial activity (growth),[1]; 200 μg/ml,-
same,Antibacterial activity (growth),[1]; 400 μg/ml,-
same,MIC,"[1]; IFO12648, Serratia marcescens, BHI, 37° C., read-out: MIC (minimum inhibitory concentration)",> 400 µg/mL
same,Antibacterial activity (growth),[2]; 10 μg/ml,-
same,Antibacterial activity (growth),[2]; 25 μg/ml,-
same,Antibacterial activity (growth),[2]; 50 μg/ml,-
same,Antibacterial activity (growth),[2]; 100 μg/ml,-
same,Antibacterial activity (growth),[2]; 200 μg/ml,-
same,Antibacterial activity (growth),[2]; 400 μg/ml,-
same,MIC,"[2]; Priestia megaterium, QMB1551, Bacillus megaterium, BHI, 37° C., read-out: MIC (minimum inhibitory concentration)",> 400 µg/mL
